{
  "source": "patent US8263656B2",
  "about": "(Hoffmann-La Roche Inc., priority 2008, dated 2012)",
  "data": [
    {"target": "T1, human CRTH2 (Homo sapiens, UniProt Q9Y5Y4)", "T1 construct": "expressed in transfected cells", "T1 sequence (Q9Y5Y4 1-395)": "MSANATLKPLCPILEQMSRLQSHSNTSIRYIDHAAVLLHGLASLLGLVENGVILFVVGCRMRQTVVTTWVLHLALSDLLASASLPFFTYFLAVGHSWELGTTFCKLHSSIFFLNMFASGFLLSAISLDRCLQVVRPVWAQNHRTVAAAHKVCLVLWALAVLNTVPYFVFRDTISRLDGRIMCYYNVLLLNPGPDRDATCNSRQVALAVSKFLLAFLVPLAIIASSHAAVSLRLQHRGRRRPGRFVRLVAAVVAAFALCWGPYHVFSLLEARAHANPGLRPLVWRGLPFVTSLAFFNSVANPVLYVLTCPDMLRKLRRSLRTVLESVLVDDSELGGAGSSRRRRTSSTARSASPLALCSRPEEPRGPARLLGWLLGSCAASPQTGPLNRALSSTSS", "assay": "Human CRTH2 Receptor Binding Assay (whole cell, [3H]ramatroban competition)", "settings": "CHO-K1 cells expressing human CRTH2 and G-alpha16; 20 nM [3H]ramatroban; 1 hour, room temperature", "excerpt": "A whole cell receptor binding assay using [^3H]ramatroban as the competing radioactive ligand was employed to evaluate the compound binding activity to human CRTH2. The radioactive ligand [^3H]ramatroban was synthesized according to Sugimoto et. al. (Eur. J. Pharmacol. 524, 30-37, 2005) to a specific activity of 42 Ci/mmol.\nA cell line stably expressing human CRTH2 was established by transfecting CHO-K1 cells with two mammalian expression vectors that harbored human CRTH2 and G-alpha16 cDNAs, respectively, using FuGene® 6 transfection reagent (from Roche). Stable clones expressing CRTH2 were selected by staining each clone with BM16 (BD Pharmingen™ from BD Biosciences, a division of Becton, Dickinson and Company), which is a rat monoclonal antibody to human CRTH2. The cells were maintained as monolayer cultures in Ham's F-12 medium containing 10% fetal bovine serum, 100 units/mL penicillin, […] streptomycin, 2 mM glutamine, 0.5 mg/mL G418 (geneticin) for CRTH2, and 0.2 mg/mL hygromycin-B (for G-alpha 16). For whole cell receptor binding assay, the monolayer cells were rinsed once with PBS (phosphate buffered saline), dissociated using diammonium ethylenediaminetetraacetate (Versene™ EDTA from the Dow Chemical Company), and suspended in PBS containing 10 mM MgCl2 and 0.06% BSA (bovine serum albumin) at 1.5×10^6 cells/mL.\nThe binding reactions (0.2 mL) were performed in 96-well plates at room temperature in PBS containing 1.5×10^5 cells, 10 mM MgCl2, 0.06% BSA, 20 nM [^3H]ramatroban, and test compound at various concentrations. After 1 hour of binding reactions, the cells were harvested on GF™/B filter microplates (microtiter plates with embedded glass fiber from PerkinElmer, Inc.) and washed 5 times with PBS using a Filtermate™ Harvester (a cell harvester that harvests and washes cells from microplates from PerkinElmer, Inc.). The radioactivities bound to the cells were determined using a microplate scintillation counter (TopCount® NXT, from PerkinElmer, Inc.) after adding 50 μL of Microscint™ 20 scintillation fluid (from PerkinElmer, Inc.) to each well of the filter plates. The radioactivity from non-specific binding was determined by replacing compound with 10 μM of 15(R)-15-methyl PGD2 (from Cayman Chemical Company) in the reaction mixtures. The radioactivity bound to the cells in the absence of compound (total binding) was determined by replacing compound with 0.25% of DMSO (dimethyl sulfoxide) in the reaction mixture. Specific binding data were obtained by subtracting the radioactivity of non-specific binding from each binding data.\nThe IC50 value is defined as the concentration of the tested compound that is required for 50% inhibition of total specific binding. In order to calculate the IC50 value, the percent inhibition data were determined for 7 concentrations for each compound. The percent inhibition for a compound at each concentration was calculated according to the following formula, [1-(specific binding in the presence of compound)/(total specific binding)]×100. The IC50 value was then obtained by fitting the percent inhibition data to a sigmoidal dose-response (4 parameter logistic) model in the XLfit® software Excel add-in program [from ID Business Solutions Ltd., model 205, where F(x)=(A+(B−A)/(1+((C/x)^D)))].", "units": {"IC50": "nM"}, "values": [
      {"compound": "O=C(O)COc1cc(F)cc2c1CCCC2NS(=O)(=O)c1cc(Br)cc(C(F)(F)F)c1", "note": "(centres unmarked) [Example 1-28, [5-(3-Bromo-5-trifluoromethyl-benzenesulfonyl-amino)-3-fluoro-5,6,7,8-tetrahydro-naphthalen-1-yloxy]-acetic acid]", "IC50": 4.2},
      {"compound": "O=C(O)COc1c(F)c(F)cc2c1CCCC2NS(=O)(=O)c1cc(Br)cc(C(F)(F)F)c1", "note": "(centres unmarked) [Example 1-29, [5-(3-Bromo-5-trifluoromethyl-benzenesulfonyl-amino)-2,3-difluoro-5,6,7,8-tetrahydro-naphthalen-1-yloxy]-acetic acid]", "IC50": 18.2},
      {"compound": "O=C(O)COc1c(F)c(F)cc2c1CCCC2NS(=O)(=O)c1ccc(Cl)cc1Cl", "note": "(centres unmarked) [Example 1-30, [5-(2,4-Dichloro-benzenesulfonyl-amino)-2,3-difluoro-5,6,7,8-tetrahydro-naphthalen-1-yloxy]-acetic acid]", "IC50": 46.1},
      {"compound": "O=C(O)COc1cc(F)cc2c1CCCC2NS(=O)(=O)c1ccc(Cl)cc1Cl", "note": "(centres unmarked) [Example 1-31, [5-(2,4-Dichloro-benzenesulfonyl-amino)-3-fluoro-5,6,7,8-tetrahydro-naphthalen-1-yloxy]-acetic acid]", "IC50": 154},
      {"compound": "O=C(O)COc1c(F)c(F)cc2c1CCCC2NS(=O)(=O)c1cc(Cl)ccc1Cl", "note": "(centres unmarked) [Example 1-32, [5-(2,5-Dichloro-benzenesulfonyl-amino)-2,3-difluoro-5,6,7,8-tetrahydro-naphthalen-1-yloxy]-acetic acid]", "IC50": 269},
      {"compound": "O=C(O)COc1cc(F)cc2c1CCCC2NS(=O)(=O)c1cc(Cl)ccc1Cl", "note": "(centres unmarked) [Example 1-33, [5-(2,5-Dichloro-benzenesulfonyl-amino)-3-fluoro-5,6,7,8-tetrahydro-naphthalen-1-yloxy]-acetic acid]", "IC50": 81},
      {"compound": "CC(C)c1cccc(-c2ccc(S(=O)(=O)NC3CCCc4c3cc(F)c(F)c4OCC(=O)O)nc2)c1", "note": "(centres unmarked) [Example 1-34, {2,3-Difluoro-5-[5-(3-isopropyl-phenyl)-pyridine-2-sulfonylamino]-5,6,7,8-tetrahydro-naphthalen-1-yloxy}-acetic acid]", "IC50": 8.6},
      {"compound": "CC(C)c1cccc(-c2ccc(S(=O)(=O)NC3CCCc4c(OCC(=O)O)cc(F)cc43)nc2)c1", "note": "(centres unmarked) [Example 1-35, {3-Fluoro-5-[5-(3-isopropyl-phenyl)-pyridine-2-sulfonylamino]-5,6,7,8-tetrahydro-naphthalen-1-yloxy}-acetic acid]", "IC50": 7},
      {"compound": "CC(C)c1cccc(-c2ccc(S(=O)(=O)NC3CCCc4c(OCC(=O)O)cc(Cl)cc43)nc2)c1", "note": "(centres unmarked) [Example 1-36, {3-Chloro-5-[5-(3-isopropyl-phenyl)-pyridine-2-sulfonylamino]-5,6,7,8-tetrahydro-naphthalen-1-yloxy}-acetic acid]", "IC50": 4.5},
      {"compound": "O=C(O)COc1cc(Br)cc2c1CCC[C@H]2NS(=O)(=O)c1cc(Br)cc(C(F)(F)F)c1", "note": "[Example 1-37, [(R)-3-Bromo-5-(3-bromo-5-trifluoromethyl-benzenesulfonyl-amino)-5,6,7,8-tetrahydro-naphthalen-1-yloxy]-acetic acid]", "IC50": 2.8},
      {"compound": "O=C(O)COc1c(F)c(Cl)cc2c1CCC[C@H]2NS(=O)(=O)c1cc(F)cc(C(F)(F)F)c1", "note": "[Example 1-38, [(R)-3-Chloro-2-fluoro-5-(3-fluoro-5-trifluoromethyl-benzenesulfonyl-amino)-5,6,7,8-tetrahydro-naphthalen-1-yloxy]-acetic acid]", "IC50": 3.4},
      {"compound": "O=C(O)COc1c(F)c(Cl)cc2c1CCC[C@H]2NS(=O)(=O)c1cc(Br)cc(C(F)(F)F)c1", "note": "[Example 1-39, [(R)-5-(3-Bromo-5-trifluoromethyl-benzenesulfonyl-amino)-3-chloro-2-fluoro-5,6,7,8-tetrahydro-naphthalen-1-yloxy]-acetic acid]", "IC50": 2.6},
      {"compound": "O=C(O)COc1c(F)c(Cl)cc2c1CCC[C@H]2NS(=O)(=O)c1ccc(Cl)cc1Cl", "note": "[Example 1-40, [(R)-3-Chloro-5-(2,4-dichloro-benzenesulfonyl-amino)-2-fluoro-5,6,7,8-tetrahydro-naphthalen-1-yloxy]-acetic acid]", "IC50": 6.3},
      {"compound": "O=C(O)COc1cc(Cl)cc2c1CCC[C@H]2NS(=O)(=O)c1cc(F)cc(C(F)(F)F)c1", "note": "[Example 1-41, [(R)-3-Chloro-5-(3-fluoro-5-trifluoromethyl-benzenesulfonyl-amino)-5,6,7,8-tetrahydro-naphthalen-1-yloxy]-acetic acid]", "IC50": 3.4},
      {"compound": "O=C(O)COc1cc(Cl)cc2c1CCC[C@H]2NS(=O)(=O)c1cc(Br)cc(C(F)(F)F)c1", "note": "[Example 1-42, [(R)-5-(3-Bromo-5-trifluoromethyl-benzenesulfonyl-amino)-3-chloro-5,6,7,8-tetrahydro-naphthalen-1-yloxy]-acetic acid]", "IC50": 3.2},
      {"compound": "O=C(O)COc1cc(Cl)cc2c1CCC[C@H]2NS(=O)(=O)c1cc(Cl)ccc1Cl", "note": "[Example 1-43, [(R)-3-Chloro-5-(2,5-dichloro-benzenesulfonyl-amino)-5,6,7,8-tetrahydro-naphthalen-1-yloxy]-acetic acid]", "IC50": 10.9},
      {"compound": "CC(C)c1cccc(-c2ccc(S(=O)(=O)NC3CCCc4c3cc(Cl)c(F)c4OCC(=O)O)nc2)c1", "note": "(centres unmarked) [Example 1-44, {3-Chloro-2-fluoro-5-[5-(3-isopropyl-phenyl)-pyridine-2-sulfonylamino]-5,6,7,8-tetrahydro-naphthalen-1-yloxy}-acetic acid]", "IC50": 16.4},
      {"compound": "CN(C1CCCc2c1cc(Cl)c(F)c2OCC(=O)O)S(=O)(=O)c1cc(C(F)(F)F)cc(C(F)(F)F)c1", "note": "(centres unmarked) [Example 2-1, {5-[(3,5-Bis-trifluoromethyl-benzenesulfonyl)-methyl-amino]-3-chloro-2-fluoro-5,6,7,8-tetrahydro-naphthalen-1-yloxy}-acetic acid]", "IC50": 8},
      {"compound": "CN(C1CCCc2c(OCC(=O)O)cc(Cl)cc21)S(=O)(=O)c1cc(C(F)(F)F)cc(C(F)(F)F)c1", "note": "(centres unmarked) [Example 2-4, {5-[(3,5-Bis-trifluoromethyl-benzenesulfonyl)-methyl-amino]-3-chloro-5,6,7,8-tetrahydro-naphthalen-1-yloxy}-acetic acid]", "IC50": 8.3},
      {"compound": "CN([C@@H]1CCCc2c(OCC(=O)O)cc(Cl)cc21)S(=O)(=O)c1cc(C(F)(F)F)cc(C(F)(F)F)c1", "note": "[Example 2-5, {(R)-5-[(3,5-Bis-trifluoromethyl-benzenesulfonyl)-methyl-amino]-3-chloro-5,6,7,8-tetrahydro-naphthalen-1-yloxy}-acetic acid]", "IC50": 5.9},
      {"compound": "CN(C1CCCc2c(OCC(=O)O)cc(Cl)cc21)S(=O)(=O)c1ccc(Cl)cc1Cl", "note": "(centres unmarked) [Example 2-6, {3-Chloro-5-[(2,4-dichloro-benzenesulfonyl)-methyl-amino]-5,6,7,8-tetrahydro-naphthalen-1-yloxy}-acetic acid]", "IC50": 92.9},
      {"compound": "CN(C1CCCc2c1cc(Cl)c(Cl)c2OCC(=O)O)S(=O)(=O)c1cc(C(F)(F)F)cc(C(F)(F)F)c1", "note": "(centres unmarked) [Example 2-7, {5-[(3,5-Bis-trifluoromethyl-benzenesulfonyl)-methyl-amino]-2,3-dichloro-5,6,7,8-tetrahydro-naphthalen-1-yloxy}-acetic acid]", "IC50": 333},
      {"compound": "Cc1c(Cl)cc2c(c1OCC(=O)O)CCCC2N(C)S(=O)(=O)c1cc(C(F)(F)F)cc(C(F)(F)F)c1", "note": "(centres unmarked) [Example 2-8, {5-[(3,5-Bis-trifluoromethyl-benzenesulfonyl)-methyl-amino]-3-chloro-2-methyl-5,6,7,8-tetrahydro-naphthalen-1-yloxy}-acetic acid]", "IC50": 638}
    ]}
  ]
}
